According to US12011433B2 (UNIVERSITÁ DEGLI STUDI DI BARI “ALDO MORO”, priority 2016, dated 2024):

Tests used:
COX-1 = COX-1 (Mus musculus (Mouse), UniProt P22437); experiment: COX-1 expression in LPS-treated BV2 microglial cells, western blotting; format: cell-based
Procedure: (§1) Cells were then incubated for different times at 37° C. with LPS, as pro-inflammatory stimulus. Experiments included cells grown in medium alone (control).
(§2) The tissue and cell culture lysates were vortexed for 15-20 s and, then, centrifuged at 12,800×g for 20 min. The protein concentration in the supernatant was spectrophotometrically determined by Bradford's protein assay (Bradford, 1976). Protein samples were diluted with sample buffer (0.5 M Tris-HCl pH=6.8, 10% glycerol, 10% (w/v) SDS, 5% 2-mercaptoethanol, 0.05% (w/v) bromophenol blue) and then boiled for 3 min. Proteins (25 μg/lane) and prestained standards (BioRad Laboratories, Hercules, CA, USA) were loaded on 7% or 12% SDS precast polyacrylamide gels (BioRad Laboratories).
(§3) After electrophoresis, the resolved proteins were transferred from the gel to nitrocellulose membranes. A blotting buffer [20 mMTris/150 mM glycine, pH=8.0, 20% (v/v) methanol] was used for gel and membrane saturation and blotting. Then, membranes were incubated in the dark with 1 μg/mL mouse monoclonal antibody (MoAb) anti-COX-1 and rabbit polyclonal Ab anti-COX-2 (1:1000) (both from AbCam, Cambridge, UK), rabbit polyclonal Ab anti p-IkB-α (1:200), mouse polyclonal Ab anti β-actin (1:500) (all from Santa Cruz Biotechnology), mouse MoAb anti-glial fibrillary acidic protein (GFAP) (1:200) and mouse mAb anti-ionized calcium-binding adapter molecule-1 (Iba-1) (1:200) (both from Merck Millipore) overnight at 4° C. The membranes were washed with 0.1% Tween 20-PBS (for 20 min, 3 times) and then incubated with the secondary antibody diluted 1:2000 for 60 min. Bands were visualized by chemiluminescence detection (Invitrogen, Milan, Italy). The β-actin level was used as a protein loading control. For tissue analysis, obtained bands were normalized to the level of β-actin performed for each cerebral area tested. For cell cultures the bands were normalized to the β-actin level in each experimental condition.

COX-2 [1] = biological target: T1, COX-2 (Mus musculus (Mouse), UniProt Q05769); experiment: COX-2 expression in brain regions of LPS-treated mice, immunoblotting; format: in vivo; details: for COX-2 expression reduction (%): mofezolac 6 mg/kg i.p.
Procedure: Substantia nigra pars compacta (SNpc), Hippocampus, Frontal lobe and Caudate from mice brains were minced in ice-cold PBS, washed and then homogenized in a buffer containing lysis buffer (50 mM Tris pH 8, 0.02 g/mL NaCl, 0.2% SDS, 1% Triton-X, 4 U/ml aprotinin, 2 mM leupeptin, 100 mM phenylmethanesulfonyl fluoride).
as §2, §3
On the seventh day, mice were anesthetized with tribromoethanol (250 mg/Kg, i.p.) and positioned in a stereotactic apparatus (Kopf Instruments, Tujunga, CA, USA). […] Sterotaxic injections coordinates were: 2.3 mm dorsal/ventral, 1.0 mm lateral, and 0.5 mm anterior/posterior from the bregma.

[2] = Caco-2 monolayer efflux assay, Apparent Permeability (Papp), with or without GLUT-1 inhibitor phloretin; format: in vitro ADME, Human; details: human, compound alone
Procedure: (§4) In a monolayer efflux assay, the Apparent Permeability (Papp) in both basolateral to apical [Papp(B→A)] and apical to basolateral [Papp(A→B)] directions was determined for each compound (FIG. 2). Human colonic adenocarcinoma cell line (Caco-2) presents a facilitated transport system at the apical and basolateral surface. Caco-2 cells express high levels of GLUT-1 that are localized to the basolateral membrane and transport glucose to the serosal side.
(§5) The Papp(B→A) flux of each compound alone or in the presence of phloretin, a GLUT-1 inhibitor, has been determined. Since GLUT-1 is express in the basolateral compartment a high B→A flux means that the transport is GLUT-1 mediated because B→A flux represents the active transport.
(§6) A→B flux, which represents the passive transport, has also been determined for each compound (Table 2).

Caco-2 cells = experiment: as above; format: in vitro ADME, Human; details: compound alone
Procedure: as §4, §5, §6

PGE2 = PGE2 release in LPS-stimulated BV2 microglial cells, competitive binding immunoassay; format: cell-based; details: for PGE2 release (ng/ml) at 48 h: LPS-stimulated BV2 cells; for PGE2 production reduction: LPS-treated BV2 cells
Procedure: Microglial cells were cultured in 6-well plates at a density of 3×10^6 cells/well. […] The cultures were maintained at 37° C. for 24 and 48 h in a humidified air containing a 5% CO2. PGE2 levels were determined in the supernatant using a competitive binding immunoassay (Cayman Chemical, Ann Arbor, MI, USA) following the manufacturer's instructions. Unstimulated cells were included as a control. PGE2 amount determination in the brain was performed in the tissue extracts, according to the manufacturer's instructions. The optical density was measured at λ=405-420 nm with precision microplate reader and the amount of PGE2 (ng/mL) was calculated using a PGE2 standard curve.

Iba-1 = experiment: microglial activation in LPS-treated mice, Iba-1 immunoreactivity and immunoblotting; format: in vivo
Procedure: The protein concentration in the supernatant was spectrophotometrically determined by Bradford's protein assay (Bradford, 1976). […] Proteins (25 μg/lane) and prestained standards (BioRad Laboratories, Hercules, CA, USA) were loaded on 7% or 12% SDS precast polyacrylamide gels (BioRad Laboratories). After electrophoresis, the resolved proteins were transferred from the gel to nitrocellulose membranes. A blotting buffer [20 mMTris/150 mM glycine, pH=8.0, 20% (v/v) methanol] was used for gel and membrane saturation and blotting. […] Bands were visualized by chemiluminescence detection (Invitrogen, Milan, Italy). The β-actin level was used as a protein loading control. For tissue analysis, obtained bands were normalized to the level of β-actin performed for each cerebral area tested. For cell cultures the bands were normalized to the β-actin level in each experimental condition. […] VM in all the Figures) once a day for 10 days. […] On the seventh day, mice were anesthetized with tribromoethanol (250 mg/Kg, i.p.) and positioned in a stereotactic apparatus (Kopf Instruments, Tujunga, CA, USA). […] Immunohistochemistry was performed following a standard avidin-biotin complex procedure. […]

COX-2 [3] = biological target: T1, COX-2; experiment: COX-2 expression in LPS-treated BV2 microglial cells, western blotting; format: cell-based; details: LPS-stimulated BV2 cells
Procedure: as §1, §2
After electrophoresis, the resolved proteins were transferred from the gel to nitrocellulose membranes. A blotting buffer [20 mMTris/150 mM glycine, pH=8.0, 20% (v/v) methanol] was used for gel and membrane saturation and blotting. […]

## COc1ccc(-c2noc(CC(=O)O)c2-c2ccc(OC)cc2)cc1 [mofezolac, 2-(3,4-bis(4-methoxyphenyl)isoxazol-5-yl)acetic acid]
COX-1; BV2 cells, 48 h of incubation with LPS, 1 h pre-treated
  COX-1 expression levels: significantly reduced
COX-1; LPS-activated BV2 cells, independently from its concentration (0.1 and 0.5 μM)
  COX-1 expression reduction: 78%
COX-2 [1]; Caudate
  COX-2 expression reduction (%): 0%
COX-2 [1]; Frontal lobe
  COX-2 expression reduction (%): 0%
COX-2 [1]; Hippocampus
  COX-2 expression reduction (%): 0%
COX-2 [1]; Substantia nigra
  COX-2 expression reduction (%): 0%
COX-2 [1]; all tested brain regions
  effect on COX-2 modulation: no effect
[2]
  Papp B→A: 46.1 ×10⁻⁶ cm/s
Caco-2 cells
  Papp A→B: 41.4 ×10⁻⁶ cm/s
  Papp B→A: 46.1 ×10⁻⁶ cm/s
PGE2; 0.1 μM inhibitor + LPS
  PGE2 release (ng/ml) at 48 h: 0.06 ng/mL
PGE2; 0.5 μM inhibitor + LPS
  PGE2 release (ng/ml) at 48 h: 0.03 ng/mL
PGE2; at 0.5 μM as printed in the text
  PGE2 production reduction: 94%
PGE2; at 1 μM as printed in the text
  PGE2 production reduction: 97%
Iba-1; immunoblotting, mofezolac + LPS vs LPS alone
  Iba-1 levels: significantly reduced
Iba-1; immunohistochemistry, LPS-injected mice, mofezolac 6 mg/kg i.p., all the tested brain areas
  Iba-1 immunoreactivity: reduction of Iba-1 immunoreactivity
COX-2 [3]
  COX-2 protein levels: unaffected
